Experiments:
[1] = system: NSCs; assay: Proteomics and antibody microarray of NSCs; format: cell-based, rat; conditions: 20 μM Aβ25-35 + 10 μM PEP1, 48 hours, antibody microarray
Method: The cultured NSCs were washed with cold PBS twice, and disrupted in a sample lysis buffer using a sonicator for 10 seconds. In addition, the cells were disrupted again for a further 1 hour at room temperature. After centrifugation at 15° C. and 15000 g for 1 hour, a non-water-soluble sample was eliminated, and only water-soluble samples were subjected to two-dimensional electrophoresis. A protein concentration was quantified by a Bradford method.
200 μg of a protein sample was loaded on an Immobiline DryStrip gel. […] was performed at 20° C. For electron focusing, a voltage was increased from 150 volts to 3500 volts over 3 hours to allow the sample to enter the gel. Before entering two-dimensionally, the sample was cultured in an equilibration buffer for 10 minutes. […]
For quantitative analysis, images were analyzed with a PDQuest system. […]
To identify a protein through peptide mass fingerprinting, a protein spot was cleaved into smaller peptides using trypsin, well mixed with a-cyano-4-hydroxycinnamic acid in 50% acetonitrile/0.1% TFA, and then analyzed with MALDI-TOF. […]
For antibody microarray analysis, a panorama antibody cell signaling kit was used. […] Array slides were read using a scanner, and results from the obtained scans were analyzed using an analysis program.

[2] = system: Tuj1; assay: Tuj1 expression in 3XTg-AD mice (western blotting, immunostaining); format: in vivo; conditions: hippocampus and whole brain; s.c. three times a week for two months; vs control and Donepezil, same amount
Method: To test the efficacy of PEP1 on AD, AD transgenic mice (3XTg-AD) were purchased from Jackson Laboratory. Genetic characteristics of the transgenic mice are as follows: B6; 129-Psen1tm1Mpm Tg(APPSwe, tauP301L)1Lfa/Mmjax. […] One week after mice were confirmed as pregnant, new mice were delivered and weaned for 3 weeks. Two weeks later, mature mice were obtained.
During the preliminary breeding and the entire period of the experiment, a temperature was maintained at 23±2° C. and a relative humidity was maintained at 60±10%, and then the mice were raised under a 12-hour dark/light cycle. Experimental animals were divided into five groups, and each group included 10 animals. The divided experimental groups are as follows. […]
The PEP1, physiological saline, donepezil and scramble peptide were subcutaneously injected at each concentration three times a week for two months from the age of 12 months, and then two months after the injection, cognitive/memory behavior tests (passive avoidance test and Y maze test) were performed to examine a degree of improvement in cognitive function and memory function. After the brain was extracted to separate the hippocampus, the amounts of amyloid beta in the hippocampus and the whole brain, and the amounts of an amyloid beta oligomer and NFT generated by tau hyperphosphorylation were determined by western blotting and immunostaining. […]

EARPALLTSRLRFIPK (homo sapiens) [PEP1, hTERT-derived peptide consisting of 16 amino acids, telomerase location [611-626]]
phosphorylated proteins associated with proliferation [1]: recovered | Tuj1 [2]: increased

From patent US20180318383A1, “PEPTIDE HAVING NEURONAL LOSS PREVENTION AND REGENERATION EFFECTS, AND COMPOSITION CONTAINING SAME” (GEMVAX & KAEL CO., LTD., priority 2015, published 2018)
